Patent US20260053935A1, “METHODS AND COMPOSITIONS FOR TREATING CANCER WITH CANCER-BINDING ADJUVANTS” (THE UNIVERSITY OF CHICAGO, priority 2022, published 2026)

Legend:
C1498 cells = assay: In vitro cancer cell binding of dye-labeled polymer to AML cells
Description: Flow cytometric analysis of dye labeled PDS-containing polymers binding to C1498 cells in a (A) polymer dose-dependent manner.
They also investigated the effect of cytarabine pre-treatment on polymer binding, both in a dose and time dependent manner.

[1] = In vivo polymer biodistribution (tissue homogenate fluorescence); settings: cytarabine one day before polymer i.v.
Description: To achieve this, they inoculated normal B6 mice with C1498. After one day, one group of mice received a dose of cytarabine. […] Eight hours after this injection, mice were sacrificed, and tissues were harvested for homogenization and subsequent fluorescence quantification using a microplate reader. Fluorescence values were normalized per mg of tissue.

RAW 264.7 macrophages = assay: Cytotoxicity to RAW 264.7 macrophages (Zombie Aqua viability dye); format: cell-based; settings: 24 hours after treatment; vs media alone
[2] = system: pro-inflammatory cytokines; assay: Serum cytokine analysis in MC38 tumor-bearing mice; format: in vivo; settings: i.t. on a TLR7 equimolar basis; 6 hours after injection; vs PBS or vehicle control
Procedure: As a comparison, other mice were injected with TLR7/8 agonist telratolimod (3M-052, MedChemExpress, cat. no. HY-109104) in 10% DMSO, 40% PEG300 (Sigma Aldrich, cat. no. 8.07484), and 5% Tween-80 in PBS (Sigma Aldrich, cat. no. P8074) (with additional vehicle control mice). Six hours after injection, plasma was collected via submandibular bleed and analyzed for pro-inflammatory cytokines using LEGENDplex Mouse Inflammation Panel Assay (BioLegend, cat. no. 740446).

With `Nc1ccn([C@@H]2O[C@H](CO)[C@@H](O)[C@@H]2O)c(=O)n1` [cytarabine] the “efficiency of polymer binding to C1498 cells after cytarabine pre-treatment (duration)” value (C1498 cells; cytarabine given too far from polymer treatment) was “decreases binding efficiency of PDS-containing polymers”, the “efficiency of polymer binding to C1498 cells after cytarabine pre-treatment (dose)” value (C1498 cells; cytarabine pre-treatment for 4 hours) was “increased the efficiency of polymer binding in a dose-dependent manner” and the “effect of cytarabine pre-treatment on tissue biodistribution of polymer” value [1] was “does not significantly alter the tissue biodistribution of polymer”.
In the case of `CCOCc1nc2c(N)nc3ccccc3c2n1CC(C)(C)O` [R848], the “live cells as a percent of total cells” value (RAW 264.7 macrophages) is reported as “no significant change from the media alone control wells”.
In the case of `CCCCCCCCCCCCCCCCCC(=O)NCCCCOn1c(CCCC)nc2c(N)nc3ccccc3c21` [3M-052], the “systemic inflammatory cytokines (IFN-γ, IL-6, MCP-1, IFN-β, IL-27)” value [2] is reported as “produced significant upregulation”.
